The values that follow come from EP2330125A2 (priority 2005, dated 2007).

pEC50, pIC50: −log10 of the molar value. Read-outs that look alike come from different tables or passages of the source.

The target of assay [1] is T1, CGRP receptors (Homo sapiens, UniProt O60894+Q16602).
T1 construct: SK-N-MC and L6 cells expressing endogenous CGRP receptors; endogenous in cells; host or cells: SK-N-MC cell membranes
The assay is classed as binding.

Assay [2] has as its target T2, CT receptor (Rattus norvegicus, UniProt P32214).
T2 construct: host or cells: 'C1A' (not explained)
T2 sequence (P32214 25-479 isoform P32214-2 limits assumed): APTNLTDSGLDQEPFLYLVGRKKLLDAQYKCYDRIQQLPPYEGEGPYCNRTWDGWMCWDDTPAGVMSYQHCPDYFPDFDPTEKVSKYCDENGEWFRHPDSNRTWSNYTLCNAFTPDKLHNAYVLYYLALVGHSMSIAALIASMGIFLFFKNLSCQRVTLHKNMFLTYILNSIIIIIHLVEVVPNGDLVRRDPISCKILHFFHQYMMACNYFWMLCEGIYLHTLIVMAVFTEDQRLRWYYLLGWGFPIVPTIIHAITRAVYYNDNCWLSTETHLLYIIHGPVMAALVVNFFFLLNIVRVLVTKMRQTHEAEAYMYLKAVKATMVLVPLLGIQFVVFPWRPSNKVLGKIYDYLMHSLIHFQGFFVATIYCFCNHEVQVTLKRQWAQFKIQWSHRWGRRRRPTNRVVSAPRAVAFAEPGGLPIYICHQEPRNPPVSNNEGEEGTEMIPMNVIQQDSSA
The assay is classed as cell-based.

The format of assay [3] is in vivo, NIH/Swiss mice. Set-up: key to percent inhibition of food intake: "ns" means "not significant" compared to vehicle.
Method: For studies of the effects of PPF polypeptides on longer-term (chronic) food intake and/or body composition, the amount of food consumed over a period of two weeks was measured. For these studies of the effects of PPF polypeptides on longer-term food intake and/or body composition, mice were housed singly for 1 week prior to the beginning of treatment. Throughout the experiments, food intake and body weight were monitored daily. […] At the end of each study, animals were sacrificed after a 2-4 hr fast by isoflurane overdose. Blood was collected into Na-heparin-flushed syringes by cardiac puncture, and plasma was immediately frozen. In some studies, body composition was determined using dual-energy X-ray absorptiometry (DEXA; PixiMus, GE Lunar). In some studies, body composition (such as the amounts of fat and protein) were measured pre- and post treatment using a rodent NMR machine (EchoMRI-700™), in which animals are placed in a restraining tube and placed in the NMR for 2 minutes, and the amount of fat and lean mass, in grams, is quantified.
Assay [4] concerns calcitonin receptor. The assay is classed as binding.
For assay [5], the target named is GLP Receptor. The assay is classed as biochemical.
The conditions of assay [6]: infusions in normal men; cited from earlier work.
The format of assay [7] is in vivo, Levin rats.
From the text: Values are given as percent reduction of blood glucose level.
Assay [8] can be described thus: Gastric emptying (acetaminophen passed). The assay is classed as in vivo, Levin rats.
From the text: Values are given as percent inhibition of gastric emptying and percent acetaminophen passed.
The format of assay [9] is in vivo, Sprague-Dawley rat (Levin DIO rats). The settings on record: for percent inhibition of body weight: rat DIO.
Method: (§1) DIO male rats are obtained from Charles River Laboratories, Inc. (Wilmington, MA). […] The animals typically achieve a mean body weight of about 500 g. Levin DIO rats are habituated to caging environment for 7 days. During the 3 nights of habituation, animals receive a single intraperitoneal (IP) injection of vehicle. […] Food intake is measured by an automated food intake measuring system (BioDAQ, Research Diets) at 5 sec intervals throughout the course of the study. Body weight is recorded nightly.
Body composition was measured prior to and after drug treatment using NMR (Echo Medical Systems, Houston, TX). For body composition measurements, rats are briefly placed (~1 min) in a well-ventilated plexiglass tube that was then inserted into a specialized rodent NMR machine. This enabled the calculation of changes in actual grams of fat and dry lean tissue (e.g., grams of body fat after treatment -grams of body fat at baseline = change in grams of body fat) and changes in % body composition for fat and dry lean tissue (e.g., % body fat after treatment -% body fat at baseline = change in % body fat). All data are represented as mean ± SEM. Analysis of variance (ANOVA) and post-hoc tests were used to test for group difference. […] Graphs and results are typically presented as vehicle-corrected changes in percent body weight, body fat and changes in body protein
Values are as provided as percent inhibition of body weight after infusion for the time periods indicated.
The format of assay [10] is in vivo, C57BL/6 mice. The conditions noted are these: mouse DIO.
From the text: An exemplary assay can be one that involves utilization of a diet-induced obese (DIO) mouse model for metabolic disease. […] During the study, the mice can continue to eat their high-fat diet Water can be provided ad libitum throughout the study.
DIO mice can be implanted with subcutaneous (SC) intrascapular osmotic pumps to deliver either vehicle (50% dimethylsulfoxide (DMSO) in water) or a compound of the invention.
Body weights and food intake can be measured over regular intervals throughout the study periods. Respiratory quotient (RQ, defined as CO2 production ÷ O2 consumption) and metabolic rate can be determined using whole-animal indirect calorimetry (Oxymax, Columbus Instruments, Columbus, OH). The mice can be euthanized by isoflurane overdose, and an index of adiposity (bilateral epididymal fat pad weight) measured. Moreover, prior to determination of epididymal weight, body composition (lean mass, fat mass) for each mouse can be analyzed using a Dual Energy X-ray Absorptiometry (DEXA) instrument per manufacturer's instructions (Lunar Piximus, GE Imaging System).
The conditions of assay [11]: rat, in vivo.
Method: as §1
Values are given as percent inhibition of body weight.
Values are given as percent inhibition of body weight. […] Body Weight: ∼2% difference is statistically significant.
For assay [12] the following is noted: rat, in vivo. This is another data set of the same source.
Method: as §1
Values are given as percent inhibition of body weight. […] Body Weight: ∼2% difference is statistically significant. Food Intake: ∼20% difference is statistically significant.

T1 sequence (Q16602 23-461): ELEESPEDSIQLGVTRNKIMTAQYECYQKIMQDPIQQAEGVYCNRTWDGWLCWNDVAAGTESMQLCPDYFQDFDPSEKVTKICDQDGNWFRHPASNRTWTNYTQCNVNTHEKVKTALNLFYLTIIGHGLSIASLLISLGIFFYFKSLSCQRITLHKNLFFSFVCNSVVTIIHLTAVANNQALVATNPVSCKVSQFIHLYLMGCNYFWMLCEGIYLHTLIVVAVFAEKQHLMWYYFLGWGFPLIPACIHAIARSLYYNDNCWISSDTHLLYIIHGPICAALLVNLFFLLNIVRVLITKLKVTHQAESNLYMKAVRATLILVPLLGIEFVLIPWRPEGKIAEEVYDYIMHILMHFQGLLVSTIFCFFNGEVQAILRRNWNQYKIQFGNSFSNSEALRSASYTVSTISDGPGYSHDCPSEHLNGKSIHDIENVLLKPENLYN
T1 sequence (O60894 27-148 partner): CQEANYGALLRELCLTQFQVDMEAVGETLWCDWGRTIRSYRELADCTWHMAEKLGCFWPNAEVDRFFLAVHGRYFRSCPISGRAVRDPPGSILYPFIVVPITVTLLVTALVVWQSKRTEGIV

As to “[Ser117, dLeu119]leptin(116-122)-Amylin(1-7)-[^11,18Arg]sCT(8-27)-Amylin(33-37) [Compound 16]”, the “binding to the CGRP receptor (RBA = receptor binding assay)” value in assay [1] was “some binding”. In addition, in [2], the “activation of the CT receptor (C1A assay)” value is listed as “able to activate”. The “cumulative intake, % that of controls” value in [3] (mouse, in vivo) is 34-38%. The “binding to the CT receptor (RBA = receptor binding assay)” value in assay [4] is “bound”.
For CCK8, the “percent inhibition of food intake” value in assay [3] (mouse, in vivo) is on record as “ns”.
As for “DF(P-CH2SO3)MGWNMFGKR KCNTATCATQRLANELVRLQTYPRTNVGSNTY [SEQ ID NO: 398]”, the pIC50 in assay [5] (read-out: IC50 in a GLP Receptor cyclase (RIN) assay) was 6.00.
Turning to brain natriuretic peptide [BNP], in [6], the “increase in sodium excretion” value was 2 fold; the “reduction in plasma renin, angiotensin II and aldosterone secretion” value was 50%.
With “KCNTATCATQRLANFLVRSSNNLGPVLPPTNVGSNTY [rat amylin]”, the “%Reduction of blood glucose, OGTT, 30” value in assay [7] (23 nmol/kg/d, day 26) is 2.3%; in assay [7] (69 nmol/kg/d, day 14), 11%. The “%Reduction of blood glucose, OGTT, 60” value in assay [7] (23 nmol/kg/d, day 26) turned out to be 19.2%; in assay [7] (69 nmol/kg/d, day 14), 5.9%. Moreover, the “%Reduction of blood glucose, OGTT, 120” value in assay [7] (23 nmol/kg/d, day 26) is recorded as 2.1%; in [7] (69 nmol/kg/d, day 14) it was 1.2%. The “%Reduction of blood glucose, OGTT, Basal” value in assay [7] (23 nmol/kg/d, day 26) is on record as 4%; in assay [7] (69 nmol/kg/d, day 14), 6%. Further, in assay [7] (69 nmol/kg/d, day 14), the “%Reduction of blood glucose, OGTT, 15” value is given as -0.2%. Moreover, the “%inhibition of gastric emptying” value was 45% in assay [8] (69 nmol/kg/d, 21 days on study) and 24% in [8] (100 µg/kg/d, 26 days on study). Besides, the “%passed (acetaminophen)” value is recorded as 55% in [8] (69 nmol/kg/d, 21 days on study) and 76% in assay [8] (100 µg/kg/d, 26 days on study). Also, the “percent inhibition of body weight” value in assay [9] (infusion 0.7 nmol/kg/d, Day 7) is on record as 1.6%; in assay [9] (infusion 0.7 nmol/kg/d, Day 14), 1.3%; in assay [9] (infusion 0.7 nmol/kg/d, Day 21), 1.6%; in [9] (infusion 0.7 nmol/kg/d, Day 28), 2.1%; in [9] (infusion 7 nmol/kg/d, Day 7), 5.7%; in assay [9] (infusion 7 nmol/kg/d, Day 14), 7.3%. Besides, the “percent inhibition of body weight” value is reported as 7.9% in assay [9] (infusion 7 nmol/kg/d, Day 21); 8.3% in [9] (infusion 7 nmol/kg/d, Day 28); 5.9% in [9] (infusion 18.4 nmol/kg/d, Day 7); 7.5% in [9] (infusion 18.4 nmol/kg/d, Day 14); 6.7% in [9] (infusion 18.4 nmol/kg/d, Day 21); 6.5% in assay [9] (infusion 18.4 nmol/kg/d, Day 28). Besides, the “percent inhibition of body weight” value worked out at 7.8% in assay [9] (infusion 23 nmol/kg/d, Day 7); 9.4% in assay [9] (infusion 23 nmol/kg/d, Day 14); 8.8% in assay [9] (infusion 23 nmol/kg/d, Day 21); 8.8% in assay [9] (infusion 23 nmol/kg/d, Day 28); 9.5% in assay [9] (infusion 23 nmol/kg/d, Day 35); 10% in assay [9] (infusion 23 nmol/kg/d, Day 42). The “percent inhibition of body weight” value turned out to be 9.8% in assay [9] (infusion 23 nmol/kg/d, Day 49); 9.1% in [9] (infusion 23 nmol/kg/d, Day 56); 7.6% in assay [9] (infusion 69 nmol/kg/d, Day 7); 9.3% in assay [9] (infusion 69 nmol/kg/d, Day 14); 11.1% in assay [9] (infusion 69 nmol/kg/d, Day 21); 12.2% in [9] (infusion 69 nmol/kg/d, Day 28). Also, the “percent inhibition of body weight” value worked out at 15.4% in assay [9] (infusion 69 nmol/kg/d, Day 49); 15.7% in assay [9] (infusion 69 nmol/kg/d, Day 56); 16.2% in [9] (infusion 69 nmol/kg/d, Day 63); 15.8% in assay [9] (infusion 69 nmol/kg/d, Day 70); 7.6% in assay [9] (infusion 70 nmol/kg/d, Day 7); 8.9% in [9] (infusion 70 nmol/kg/d, Day 14). Further, the “percent inhibition of body weight” value in [9] (infusion 70 nmol/kg/d, Day 21) was found to be 10.2%; in assay [9] (infusion 70 nmol/kg/d, Day 28) it was 11.8%; in [10] (infusion 30 nmol/kg/d, Day 2), 1.9%; in [10] (infusion 30 nmol/kg/d, Day 7) it was 1.5%; in [10] (infusion 30 nmol/kg/d, Day 14) it was 2.1%; in assay [10] (infusion 30 nmol/kg/d, Day 21), 2.5%. The “percent inhibition of body weight” value in [10] (infusion 30 nmol/kg/d, Day 28) stood at 2.2%; in assay [10] (infusion 75 nmol/kg/d, Day 2) it was 1.5%; in assay [10] (infusion 75 nmol/kg/d, Day 7), 1.4%; in assay [10] (infusion 75 nmol/kg/d, Day 14), 2.1%; in assay [10] (infusion 100 nmol/kg/d, Day 2) it was 1.6%; in assay [10] (infusion 100 nmol/kg/d, Day 7), 1.8%. For the same substance, the “percent inhibition of body weight” value in [10] (infusion 100 nmol/kg/d, Day 14) is 3.1%; in assay [10] (infusion 100 nmol/kg/d, Day 21), 3.8%; in assay [10] (infusion 100 nmol/kg/d, Day 28), 4.4%; in [10] (infusion 100 nmol/kg/d, Day 35), 6.9%; in assay [10] (infusion 100 nmol/kg/d, Day 42), 8.6%; in [10] (infusion 100 nmol/kg/d, Day 49) it was 9.6%. Besides, the “percent inhibition of body weight” value is reported as 10.3% in [10] (infusion 100 nmol/kg/d, Day 63); 11.4% in assay [10] (infusion 100 nmol/kg/d, Day 70); 12% in assay [10] (infusion 100 nmol/kg/d, Day 77); 13.4% in assay [10] (infusion 100 nmol/kg/d, Day 84); 1.1% in assay [10] (infusion 300 nmol/kg/d, Day 2); -0.7% in assay [10] (infusion 300 nmol/kg/d, Day 7). In addition, the “percent inhibition of body weight” value is reported as -0.9% in assay [10] (infusion 300 nmol/kg/d, Day 14); -1.5% in assay [10] (infusion 300 nmol/kg/d, Day 21); -1.5% in assay [10] (infusion 300 nmol/kg/d, Day 28). Besides, the “percent inhibition of food intake” value in assay [3] (25 nmol/kg, 30 min) turned out to be 46%; in [3] (25 nmol/kg, 60 min), 35%; in assay [3] (25 nmol/kg, 120 min) it was 21%; in assay [3] (25 nmol/kg, 180 min) it was 17%; in [3] (25 nmol/kg, 240 min), 7%; in assay [3] (250 nmol/kg, 30 min), 70%. The “percent inhibition of food intake” value in assay [3] (250 nmol/kg, 60 min) was 53%; in assay [3] (250 nmol/kg, 120 min), 38%; in [3] (250 nmol/kg, 180 min), 30%; in [3] (300 nmol/kg, 30 min) it was 88%; in assay [3] (300 nmol/kg, 60 min), 90%; in assay [3] (300 nmol/kg, 120 min), 51%. In addition, the “percent inhibition of food intake” value in assay [3] (300 nmol/kg, 180 min) stood at 21%. The “60 min ED50” value in assay [3] (Mouse Food Intake, 60 min) was 9 nmol/kg. For the same substance, the pIC50 in [4] (read-out: Receptor Binding CT) is 8.52. In assay [5] (read-out: Receptor Activation GLP-1/GIP/CT cyclase), the pEC50 is 8.30.
Turning to Amylin, the “1 Wk BW Loss” value in [11] came to 0%; in assay [9] (rat, in vivo), 6%. Further, in assay [12], the “FI Iinhib @ 8 hr” value was 0%.
